In the test the target is T1, human leukocyte elastase (Homo sapiens, UniProt P08246).
T1 sequence (P08246 30-267): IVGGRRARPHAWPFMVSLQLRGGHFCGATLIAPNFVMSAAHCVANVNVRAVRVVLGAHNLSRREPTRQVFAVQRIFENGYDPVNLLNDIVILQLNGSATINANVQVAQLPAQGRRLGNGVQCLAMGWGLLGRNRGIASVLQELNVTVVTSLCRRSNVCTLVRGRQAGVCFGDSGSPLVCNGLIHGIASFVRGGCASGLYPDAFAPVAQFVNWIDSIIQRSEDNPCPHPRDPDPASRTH
The test is described as follows: in vitro human leukocyte elastase inhibiting activity (fluorogenic substrate, method of JP-A-2-101017 with slight modification). The test is classed as biochemical. The procedure: Thus, methoxysuccinyl-Ala-Ala-Pro-Val-7-amido-4-methylcoumarin was used as a substrate for human leukocyte elastase and the 50% inhibitory concentration (IC₅₀) was measured. The enzymatic reaction was carried out in 0.2 M Tris-hydrochloride buffer (containing 0.02 M CaCl₂ and 0.005% Triton X-100) at pH 7.2. Each mixture of test compound solution and the enzyme solution was incubated at 25°C for 20 minutes.

The mark [1] stands for this setting: 50% inhibitory concentration, substrate methoxysuccinyl-Ala-Ala-Pro-Val-7-amido-4-methylcoumarin, 0.2 M Tris-hydrochloride buffer (0.02 M CaCl2, 0.005% Triton X-100), pH 7.2, compound and enzyme incubated at 25°C for 20 minutes, read-out: IC50.

Data on 16 compounds can be found in EP0475531A1, “Benzoic acid phenylester compounds and elastase inhibiting compositions containing the same” (Asahi Kasei Kogyo Kabushiki Kaisha, priority 1990, dated 1992).

Read-outs that look alike come from different tables or passages of the source.

With `O=C(O)CCC(=O)Nc1ccc(C(=O)Oc2cc(Cl)cc(Cl)c2)cc1` [Compound 22, 3,5-dichlorophenyl 4-(succinylamino)benzoate], under setting [1], the IC50 was found to be 23 nM.

`CS(=O)(=O)Nc1ccc(C(=O)Oc2cc(Cl)cc(Cl)c2)cc1` [Compound 24, 3,5-dichlorophenyl 4-(methanesulfonylamino)benzoate]: the IC50 under setting [1] was determined as 98 nM.

In the case of `COc1cc(OC)cc(OC(=O)c2ccc(NC(=O)C(C)C)cc2)c1` [Compound 91, 3,5-dimethoxyphenyl 4-(isobutanoylamino)benzoate], under setting [1], the half-inhibitory concentration (IC50) came to 300 nM. Take `CC(C(=O)Nc1ccc(C(=O)Oc2cc(Cl)cc(Cl)c2)cc1)c1ccccc1` (stereo not shown) [Compound 20, 3,5-dichlorophenyl 4-(2-methyl-2-phenylacetylamino)benzoate]: under setting [1], the IC50 came out at 12 nM. For `O=C(Nc1ccc(C(=O)Oc2cc(Cl)cc(Cl)c2)cc1)OCc1ccccc1` [Compound 34, 3,5-dichlorophenyl 4-(benzyloxycarbonylamino)benzoate], under setting [1], the IC50 is 260 nM. The same measure, in the same setting: in the case of `CC(C)C(=O)Nc1ccc(C(=O)Oc2cccc(C(F)(F)F)c2)cc1` [Compound 94, 3-trifluoromethylphenyl 4-(isobutanoylamino)benzoate] it was 240 nM. `CC(C)C(=O)Nc1ccc(C(=O)Oc2cccc(Br)c2)cc1` [Compound 72, 3-bromophenyl 4-(isobutanoylamino)benzoate]: under setting [1], the half-maximal inhibitory concentration (IC50) amounted to 21 nM. As to `CC(C)C(=O)Nc1ccc(C(=O)Oc2cc(Cl)cc(OC(=O)N(C)C)c2)cc1` [Compound 81, 3-chloro-5-(dimethylaminocarbonyloxy)phenyl 4-(isobutanoylamino)benzoate], the IC50 was 6.5 nM.

As to `CCCCNC(=O)Nc1ccc(C(=O)Oc2cc(Cl)cc(Cl)c2)cc1` [Compound 29, 3,5-dichlorophenyl 4-(3-butylureido)benzoate], the IC50 under setting [1] turned out to be 20 nM. As to `O=C(Nc1ccc(C(=O)Oc2cc(Cl)cc(Cl)c2)cc1)OCCO` [Compound 35, 3,5-dichlorophenyl 4-(2-hydroxyethoxycarbonylamino)benzoate], under setting [1], the half-inhibitory concentration (IC50) turned out to be 38 nM.

For `CC(C)C(=O)Nc1ccc(C(=O)Oc2cc(Cl)cc(Cl)c2)cc1` [Compound 7, 3,5-dichlorophenyl 4-(isobutanoylamino)benzoate], under setting [1], the IC50 is 4.1 nM. Regarding `CC(C)C(=O)Nc1ccc(C(=O)Oc2cccc(F)c2F)cc1` [Compound 67, 2,3-difluorophenyl 4-(isobutanoylamino)benzoate], under setting [1], the IC50 turned out to be 88 nM. As for `CCCNC(=O)Nc1ccc(C(=O)Oc2cc(Cl)cc(Cl)c2)cc1` [Compound 28, 3,5-dichlorophenyl 4-(3-propylureido)benzoate], the IC50 under setting [1] was 16 nM.

For the compound `CC(C)(CC#N)C(=O)Nc1ccc(C(=O)Oc2cc(Cl)cc(Cl)c2)cc1` [Compound 46, 3,5-dichlorophenyl 4-(3-cyano-2,2-dimethylpropanoylamino)benzoate], the IC50 under setting [1] was 6.7 nM. Regarding `CN(C)C(=O)Oc1cc(Cl)cc(OC(=O)c2ccc(NC(=O)C(C)(C)C)cc2)c1` [Compound 58, 3-chloro-5-(dimethylaminocarbonyloxy)phenyl 4-(pivaloylamino)benzoate], the IC50 came out at 3.5 nM. `COC(=O)c1ccc(Cl)cc1OC(=O)c1ccc(NC(=O)C(C)C)cc1` [Compound 63, 3-chloro-6-(methoxycarbonyl)phenyl 4-(isobutanoylamino)benzoate]: the IC50 under setting [1] is 97 nM.
